Patent US10857167B2, “Use of oligosaccharide compositions to enhance weight gain” (Children's Hospital Medical Center, priority 2015, dated 2020)
“Also recorded” adds a separate entry of the source.

Tested on: small bowel luminal microbiome
Assay: 16S sequencing of small bowel luminal contents after ICR
Type: in vivo, mouse
Excerpt: Luminal small bowel contents were expressed into AllProtect Tissue Reagent (Qiagen Inc, CA). Bacterial DNA was extracted using the AllPrep DNA/RNA Mini Kit (Qiagen Inc, CA), according to kit instructions and prior to sequencing (described below). Small bowel tissue samples for RNA were placed into RNA Later (Life Technologies, NY). RNA extraction was accomplished following Qiagen RNeasy Plus Kit instruction (Qiagen Inc, CA). All nucleic acid samples were then stored at −80 Celsius until sequenced (described below).
Following bacterial community DNA extraction from harvested small bowel contents obtained from operated mice taken to 8 weeks, samples were quantified using the Qubit ssDNA kit (Life Technologies, NY). The V3 and V4 regions of the 16S gene were then amplified and tagged with region-specific primers (Illumina flowcell compatible sequences), permitting sequencing of up to 576 individual bacterial communities on the same flowcell. Fadrosh et al. (2014) Microbiome 2:6. Two positive and 2 negative controls were included in each run. FastStart Taq kit (Roche Applied Science, Indianapolis, Ind.) was used for thermocycling then equal volumes of each amplicon were pooled and cleaned using the QIAquick PCR cleanup column (Qiagen, MD). The size of library pools was then verified using the Fragment Analyzer CE (AATI, Ames Iowa) and quantified using the Qubit high sensitivity dsDNA kit. Dilution to 1 nM and addition of PhiX V3 library (Illumina, Calif.) was followed by denaturation and further dilution to 12 pM in Illumina's HT1 buffer. The pool was then loaded to the Illumina MiSeq V2 500 cycle kit cassette, a sample sheet prepared, and the MiSeq run was initiated for FASTQ generation.
The 16S rRNA amplicon sequences were assembled and processed using an integrated, high-throughput analysis pipeline established at Cincinnati Children's Hospital Medical Center. Paired-end reads were assembled and quality filtered using Pandaseq v2.8. Masella et al. (2012) BMC bioinformatics 13: 31. Reads with ambiguous base calls, minimum overlap of 10 nt, or <425 nt were culled. Demultiplexing and removal of barcodes and primers was performed using the FastX-toolkit. Pearson et al. (1997) Genomics 46: 24-36. De novo clustering at 97% sequence similarity and chimera filtering was performed using UPARSE v7. Edgar (2013) Nature methods 10: 996-998. UCLUST, as implemented in QIIME v1.8, was used for taxonomic classification to the Greengenes v13.8 database. Caporaso et al. (2010) Nature methods 7: 335-336; Edgar (2010) Bioinformatics 26: 2460-2461; and McDonald et al. (2012) The ISME journal 6: 610-618. PyNast and FastTree were used to align sequence reads and construct a phylogenetic tree. Caporaso et al. (2010) Bioinformatics 26: 266-267; and Price et al. (2010) PloS one 5: e9490; Price M N et al. (2009) Molecular biology and evolution 26: 1641-1650. Additional integrated analyses included QIIME scripts for the generation of alpha and beta diversity metrics, corresponding visualizations, and summaries and plots of taxonomic composition. Alpha and beta diversity metrics were computed after subsampling to the lowest observed read depth (n=7,793 reads).
In order to estimate the treatment effect on alpha diversity metrics adjusted for housing cohort, a generalized ANCOVA model was used. The Chaol, Shannon, Simpson and Faith's Phylogenetic Diversity indices were examined. Differences between groups in community composition post-treatment, as measured by the weighted and unweighted UniFrac metrics (Lozupone and Knight (2005) Applied and environmental microbiology 71: 8228-8235) were tested by permutational ANOVA as implemented by the ADONIS function in the R package vegan. Oksanen et al. (2015) Vegan: Community Ecology Package. 2015; and Team (2015) R: A language and environment for statistical computing R Foundation for Statistical Computing [http://www.R-project.org/. 2015]. […]

[1] = luminal contents, postop vs preop

C[C@@H]1O[C@@H](O[C@H]2[C@H](O[C@H]3[C@H](O)[C@@H](O)C(O)O[C@@H]3CO)O[C@H](CO)[C@H](O)[C@@H]2O)[C@@H](O)[C@H](O)[C@@H]1O (stereo partly shown) [2′-FL, 2′-fucosyllactose]
relative abundance of Enterobacteriaceae after resection compared to control [1]: greater decline
relative abundance of Lachnospiraceae after resection compared to control [1]: relatively larger bloom
weighted or unweighted UniFrac metrics compared to control (post-treatment, 8 weeks after ICR): Nor were differences in the weighted or unweighted UniFrac metrics detected
other alpha-diversity metrics examined (Chao1, Simpson, Faith's Phylogenetic Diversity) compared to control (small bowel luminal contents 8 weeks after ICR): No differences were detected
microbial alpha diversity by Shannon diversity index compared to control (small bowel luminal contents 56 days after ICR): significant increase; also recorded: increased; also recorded: greater alpha diversity
enrichment of sequence reads of genus Parabacteroides (OTU_146) compared to controls (small bowel luminal contents 56 days after ICR, adjusted for housing cohort): 4.1 log 2-fold
increase in microbes of the genus Parabacteroides compared to controls (supplemented, resected animals): > 4 fold
